Values of other authors in PMC3734799 (ChemMedChem, 2011).

Target: YopH (Yersinia pestis, UniProt O68720)
Sequence (O68720 164-468 limits assumed): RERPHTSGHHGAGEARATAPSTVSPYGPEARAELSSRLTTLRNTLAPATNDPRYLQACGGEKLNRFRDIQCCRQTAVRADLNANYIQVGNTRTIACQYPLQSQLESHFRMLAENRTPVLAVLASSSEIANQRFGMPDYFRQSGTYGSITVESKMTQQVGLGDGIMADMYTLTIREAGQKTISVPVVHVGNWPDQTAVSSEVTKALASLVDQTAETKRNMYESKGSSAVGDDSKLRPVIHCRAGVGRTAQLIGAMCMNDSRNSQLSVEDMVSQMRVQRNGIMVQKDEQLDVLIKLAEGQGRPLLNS

O=[N+]([O-])c1ccc(OP(=O)(O)O)cc1-c1ccccc1 [compound 1, 6-nitro-[1,1'-biphenyl]-3-yl dihydrogen phosphate]
Km: 80 µM
